Drawing on patent US20250171417A1, “HETEROCYCLIC DERIVATIVE, AND COMPOSITION AND PHARMACEUTICAL USE THEREOF” (Xizang Haisco Pharmaceutical Co., Ltd., priority 2021, published 2025), this text covers IC50 for 10 molecules.

Bounds are passed on as bounds.

The test system of the assay is Prostate cancer cells 22RV1. Briefly: Experiment on inhibiting 22RV1 cell proliferation (CellTiter-Glo, 7 days). Particulars: Homo sapiens, 168 h, 22RV1 cells, 7 days incubation, cells without a unit of their own (μM), read-out: IC50 values for inhibition of 22RVI cells. In kind it is cell-based. As for the experimental part: Prostate cancer cells 22RV1 were purchased from ATCC, the cell medium was RPMI 1640+10% FBS, and the cells were cultured in an incubator at 37° C. under 5% CO2. On day 1, the cells in the exponential growth phase were collected. With a 1% css-FBS phenol red-free medium, the cell suspension was adjusted to a corresponding concentration, plated at 2000 cells/well and incubated overnight. On day 2, compounds at different concentrations were added, and the plate was placed in the incubator and incubated for further 7 days. After the incubation was completed, according to operation instructions for a CellTiter-Glo kit (Promega, G7573), 50 μL of CellTiter-Glo reagents, which were already pre-melted and equilibrated to room temperature, were added to each well, and the mixtures were uniformly mixed for 2 min using a microplate shaker. The plate was placed at room temperature for 10 min. and then […] signal values were measured using a microplate reader (PHERAstar FSX). The results were processed according to formula (I), the inhibition rate of the compound at different concentrations was calculated, and the IC50 value of the compound with an inhibition rate of 50% was calculated using origin9.2 software with DoseResp function, wherein RLUcompound was the readout of the treated group, and RLUcontrol was the average value of the DMSO vehicle control group.

For the molecule `CC(C)(C(=O)Nc1ccc(C#N)c(C(F)(F)F)c1)n1cc(C#CC2CN(c3cc4c(cc3F)C(=O)N(C3CCC(=O)NC3=O)C4=O)C2)cn1` (stereo not shown) [Compound 3], the IC50 was less than 1 µM. As to `Cc1cc(NC(=O)C(C)(C)n2cc(C#CC3CN(c4ccc5c(c4)C(=O)N(C4CCC(=O)NC4=O)C5=O)C3)cn2)ccc1Cl` (stereo not shown) [Compound 16, N-(4-chloro-3-methylphenyl)-2-(4-((1-(2-(2,6-dioxopiperidin-3-yl)-1,3-dioxoisoindolin-5-yl)azetidin-3-yl)ethynyl)-1H-pyrazol-1-yl)-2-methylpropanamide], the IC50 was less than 1 µM.

As for `CC(C)(C(=O)Nc1ccc(C(F)(F)F)c(Cl)c1)n1cc(C#CC2CN(c3ccc4c(c3)C(=O)N(C3CCC(=O)NC3=O)C4=O)C2)cn1` (stereo not shown) [Compound 17, N-(3-chloro-4-(trifluoromethyl)phenyl)-2-(4-((1-(2-(2,6-dioxopiperidin-3-yl)-1,3-dioxoisoindolin-5-yl)azetidin-3-yl)ethynyl)-1H-pyrazol-1-yl)-2-methylpropanamide], the IC50 is less than 1 µM. For the molecule `Cc1ccc(NC(=O)C(C)(C)n2cc(C#CC3CN(c4ccc5c(c4)C(=O)N(C4CCC(=O)NC4=O)C5=O)C3)cn2)cc1Cl` (stereo not shown) [Compound 18, N-(3-chloro-4-methylphenyl)-2-(4-((1-(2-(2,6-dioxopiperidin-3-yl)-1,3-dioxoisoindolin-5-yl)azetidin-3-yl)ethynyl)-1H-pyrazol-1-yl)-2-methylpropanamide], the IC50 was less than 1 µM. Under `CC(C)(C(=O)Nc1cc(Cl)c(C(F)(F)F)c(Cl)c1)n1cc(C#CC2CN(c3ccc4c(c3)C(=O)N(C3CCC(=O)NC3=O)C4=O)C2)cn1` (stereo not shown) [Compound 22, N-(3,5-dichloro-4-(trifluoromethyl)phenyl)-2-(4-((1-(2-(2,6-dioxopiperidin-3-yl)-1,3-dioxoisoindolin-5-yl)azetidin-3-yl)ethynyl)-1H-pyrazol-1-yl)-2-methylpropanamide] stands less than 1 µM. `COc1cc(NC(=O)C(C)(C)n2cc(C#CC3CN(c4ccc5c(c4)C(=O)N(C4CCC(=O)NC4=O)C5=O)C3)cn2)ccc1C#N` (stereo not shown) [Compound 23, N-(4-cyano-3-methoxyphenyl)-2-(4-((1-(2-(2,6-dioxopiperidin-3-yl)-1,3-dioxoisoindolin-5-yl)azetidin-3-yl)ethynyl)-1H-pyrazol-1-yl)-2-methylpropanamide]: the IC50 was less than 1 µM.

In the case of `CC(C)(C(=O)Nc1ccc([N+](=O)[O-])c(Cl)c1)n1cc(C#CC2CN(c3ccc4c(c3)C(=O)N(C3CCC(=O)NC3=O)C4=O)C2)cn1` (stereo not shown) [Compound 25, N-(3-chloro-4-nitrophenyl)-2-(4-((1-(2-(2,6-dioxopiperidin-3-yl)-1,3-dioxoisoindolin-5-yl)azetidin-3-yl)ethynyl)-1H-pyrazol-1-yl)-2-methylpropanamide], the IC50 is less than 1 µM.

Turning to `CC(C)(C(=O)Nc1ccc([N+](=O)[O-])c(C(F)(F)F)c1)n1cc(C#CC2CN(c3ccc4c(c3)C(=O)N(C3CCC(=O)NC3=O)C4=O)C2)cn1` (stereo not shown) [Compound 26, 2-(4-((1-(2-(2,6-dioxopiperidin-3-yl)-1,3-dioxoisoindolin-5-yl)azetidin-3-yl)ethynyl)-1H-pyrazol-1-yl)-2-methyl-N-(4-nitro-3-(trifluoromethyl)phenyl)propanamide], the IC50 was less than 1 µM. As to `CC(C)(C(=O)Nc1ccc(C#N)cc1F)n1cc(C#CC2CN(c3ccc4c(c3)C(=O)N(C3CCC(=O)NC3=O)C4=O)C2)cn1` (stereo not shown) [Compound 27, N-(4-cyano-2-fluorophenyl)-2-(4-((1-(2-(2,6-dioxopiperidin-3-yl)-1,3-dioxoisoindolin-5-yl)azetidin-3-yl)ethynyl)-1H-pyrazol-1-yl)-2-methylpropanamide], the IC50 was less than 1 µM. For `CC(C)(C(=O)Nc1ccc(C#N)c(F)c1)n1cc(C#CC2CN(c3ccc4c(c3)C(=O)N(C3CCC(=O)NC3=O)C4=O)C2)cn1` (stereo not shown) [Compound 32, N-(4-cyano-3-fluorophenyl)-2-(4-((1-(2-(2,6-dioxopiperidin-3-yl)-1,3-dioxoisoindolin-5-yl)azetidin-3-yl)ethynyl)-1H-pyrazol-1-yl)-2-methylpropanamide], the IC50 was less than 1 µM.

As a reminder, the IC50 is the concentration that gives 50% inhibition.
